Values of other authors as cited in patent publication EP0279778B1, “New strain belonging to genus Thermus, new beta-galactosidase and process for producing same” (Research Development Corporation of Japan, priority 1987, dated 1988).

How the values were obtained:
[1] = test system: Thermus strain 4-1A β-galactosidase (Enzyme of Precedent 3); details: 56mM
[2] = test system: Bacillus stearothermophilus β-galactosidase (Enzyme of Precedent 5); details: 10mM

Compound	Inhibition by reaction product [1] [%]	Inhibition by reaction product [2] [%]
OC[C@H]1OC(O)[C@H](O)[C@@H](O)[C@H]1O (stereo partly shown) [galactose]	52	71
OC[C@H]1OC(O)[C@H](O)[C@@H](O)[C@@H]1O (stereo partly shown) [glucose]	63	20
